Experimental data as given in patent publication US20130165368A1, “ANTIMICROBIAL COMPOUNDS” (priority 2010, published 2013).
Values after ≈ are worked out from the molar mass of the structure shown. Like-named read-outs stand apart in the source and are kept apart here.

Experiments:
Assay type in all cases: cell-based
[1] = tested on: Steptococcus pyogenes; experiment: MIC agar dilution, micro-organism 11 (8306); conditions: Steptococcus pyogenes 8306
Method in brief: (§1)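 Agar dilution in Isosensitest/CCEY agar with egg yolk and lysed horse blood; compounds as aqueous emulsions (myristyl and lauryl alcohol with 1-methyl-2-pyrrolidone and Tween 20). 1 µL spots of 1/15-diluted 0.5 McFarland suspensions, 37 °C aerobic, read at 22 and 48 h; MIC (mmol/L) is lowest concentration giving <10 colonies.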

[2] = tested on: Enterococcus faecium; experiment: MIC agar dilution, micro-organism 16 (7171); conditions: Enterococcus faecium 7171
Method in brief: as §1

[3] = tested on: Gram negative bacteria, Gram positive bacteria and pathogenic yeasts; experiment: MIC agar dilution, summary statements over the micro-organisms tested (Tables I, IX)
Text: For a better understanding, the present invention will now be more particularly described, by way of non-limiting example only, as follows. The micro-organisms shown in Table I overleaf were acquired from the National Collection of Type Cultures (NCTC), Colindale, United Kingdom; the American Type Culture Collection (ATCC), Manassas, United States and the National Collection of Pathogenic Fungi (NCPF), Colindale, United Kingdom. They include Gram negative bacteria, Gram positive bacteria and pathogenic yeasts.
Throughout the period of testing the microbial strains were subcultured and incubated for 18-20 hours at 37° C. on a weekly basis. Horse blood agar plates were used to sustain the micro-organisms both prior to and throughout testing. The alkoxylated alkanols listed in Table II below were obtained (these are obtainable from Sigma-Aldrich Company Ltd, Dorset, England), each having a GC purity of at least 97%.
(§2) Molar equivalent concentrations were used to allow comparison between compounds of differing molecular mass. Due to weighing difficulties, any compound in solid form was melted in a water bath prior to dilution. To make ten-times strength concentrations, which takes into account agar dilution, 0.0352 mmol of each compound was weighed into plastic universal bottles and 4 mL of sterile distilled water (SDW) was added. To produce a homogenous emulsion the universals were vortexed; once achieved the emulsions were serial diluted by adding 2 mL to 2 mL of SDW.
Myristyl alcohol and lauryl alcohol were re-weighed and dissolved in 25 μL of the polar solvent 1-methyl-2-pyrrolidone (M6762; Sigma-Aldrich) in sterile glass universals due to an inability to achieve an even suspension. To maintain an even emulsion in the presence of SDW 37.5 μL of the non-ionic detergent Tween 20 (P1379, Sigma-Aldrich) was also added. 3.9375 mL of SDW was added to these, to create a 4 mL volume; they were vortexed and diluted as before.
(§3) For every 100 mL of Isosensitest agar (IST) (CM0471; Oxoid, Basingstoke, England), 3.1 g of the IST powder was added to 100 mL SDW (as per manufacturer's instructions) and sterilised for 15 minutes at 121° C. Once sterilised, the molten agar was cooled to 50° C. in a water-bath. Subsequently 4.8 g of CCEY powder (BC2160; Bioconnections, Wetherby, England), also known as Brazier's medium, was added to 100 mL SDW for every 100 mL of agar needed. This was then sterilised for 15 minutes at 121° C. Once sterilised the molten agar was cooled to 50° C. in a water-bath and 4 mL of egg-yolk emulsion (S2073; TCS Biosciences Ltd, Buckingham, United Kingdom) and 1 mL of lysed defibrinated horse blood (HB035; TCS Biosciences Ltd, Buckingham, United Kingdom) were also added for every 100 mL needed. Horse blood lysis is achieved by dilution to half concentration with SDW; when fully lysed the mixture will turn dark red in colour.
(§4) 18 mL agar was added to each universal and then poured into sterile Petri dishes. This step creates a 1/10 dilution resulting in agar plates of the required strength. Control plates for each set of strains were created by adding 18 mL of agar to 2 mL of SDW.
(§5) Suspensions of each bacterial species were prepared with a density equal to that of a 0.5 McFarland standard using a densitometer. All suspensions were made using sterile distilled water and fresh 18-20 hour cultures. As a 0.5 McFarland standard contains 1.5×10^8 CFU/mL and the multipoint inoculators applies 1 μL spots of liquid, each bacterial suspension was diluted 1/15 (20 μL suspension to 280 μL sterile distilled water).
Bacterial suspensions were prepared from fresh 18-24 hour cultures as previously described. 1 μL of each strain was inoculated onto all 100 agar plates containing a different chemical concentration and the 2 control plates. This was done using a multipoint inoculator which inoculates 20 strains per plate. All plates were incubated for 22 hours at 37° C. in aerobic conditions. […]

[4] = tested on: Enterococcus faecium (VRE) 12185 Clin waste; experiment: MIC agar dilution, VRE strain 24
Description: as §2, §3, §4, §5
(§6) Bacterial suspensions were prepared from fresh 18-24 hour cultures as previously described. 1 μL of each strain was inoculated onto all 100 agar plates containing a different chemical concentration and the 2 control plates. This was done using a multipoint inoculator which inoculates 20 strains per plate. All plates were incubated for 22 hours at 37° C. in aerobic conditions.
(§7) Each plate was examined for bacterial growth after 22 and 48 hours, with each being incubated in between examinations. A positive result was recorded as growth of ≧10 colonies. A negative result was recorded as growth of <10 colonies as this is equivalent to 99.9% inhibition. The lowest concentration of chemical that inhibited growth was recorded as the MIC. The results are recorded in Table IV below, where the numbers are quoted in mmol/L.
(§8) Given the positive performance of the ethoxylates of lauryl alcohol in reducing the MIC for a number of the micro-organisms tested, further MIC testing of Laureth-1 [C12E1] through to Laureth-8 [C12E8] was conducted on each of the following: • 10 strains of vancomycin-resistant enterococci (VRE)—listed in Table V below; and • 20 strains of methicillin-resistant Staphylococcus aureus (MRSA)—listed in Table VI.
(§9) The alkanol, alkanol derivatives, agar plates, and inocula were all prepared in the same way as described above.
(§10) The plates were examined in the same manner as described above and the results are recorded in Table VII below, where the numbers are quoted in mmol/L.

[5] = tested on: Enterococcus faecium (VRE) MB310; experiment: MIC agar dilution, VRE strain 29
Description: as §2, §3, §4, §5, §6, §7, §8, §9, §10

[6] = tested on: Enterococcus faecium (VRE) NCTC 12952; experiment: MIC agar dilution, VRE strain 30
Description: as §2, §3, §4, §5, §6, §7, §8, §9, §10

[7] = tested on: MRSA EMRSA 15 21268/98; experiment: MIC agar dilution, MRSA strain 40; conditions: Staphylococcus aureus
Description: as §2, §3, §4, §5, §6, §7, §8, §9, §10

[8] = tested on: MRSA EMRSA 16 03732/95; experiment: MIC agar dilution, MRSA strain 45; conditions: Staphylococcus aureus
Description: as §2, §3, §4, §5, §6, §7, §8, §9, §10

[9] = tested on: MRSA EMRSA 16 00998/95; experiment: MIC agar dilution, MRSA strain 47; conditions: Staphylococcus aureus
Description: as §2, §3, §4, §5, §6, §7, §8, §9, §10

Structure (SMILES)	MIC ([1]; 22 h, 22 hrs, read-out: MIC) [µM]	MIC ([1]; 48 h, 48 hrs, read-out: MIC) [µM]	MIC ([2]; 22 hrs, read-out: MIC) [µM]	MIC ([2]; 48 hrs, read-out: MIC) [µM]	MIC ([4]; 22 hrs) [µM]	MIC ([4]; 48 hrs) [µM]	MIC ([5]; 22 hrs) [µM]	MIC ([5]; 48 hrs) [µM]	MIC ([6]; 22 hrs) [µM]	MIC ([6]; 48 hrs) [µM]	MIC ([7]; 22 hrs) [µM]	MIC ([7]; 48 hrs) [µM]	MIC ([8]; 22 hrs) [µM]	MIC ([8]; 48 hrs) [µM]	MIC ([9]; 22 hrs) [µM]	MIC ([9]; 48 hrs) [µM]	MIC ([3]; read-out: MIC) [µM]	other results
CCCCCCCCCCCCCOCCOCCOCCOCCOCCOCCO [C13E6, polyoxyethylene (6) tridecyl alcohol]	–	–	–	–	–	–	–	–	–	–	–	–	–	–	–	–	–	MIC ([1]; 22 hrs): 55 µM (≈ 25.6 µg/mL); MIC ([1]; 48 hrs): 55 µM (≈ 25.6 µg/mL); MIC ([2]; 22 hrs): >880 µM; MIC ([2]; 48 hrs): >880 µM; MIC ([3]; over the micro-organisms tested or some of them): less than 0.88 mmol/L
CCCCCCCCCCCCCCCCO [C0, 1-Hexadecanol, reference compound]	220 (≈ 53.3 µg/mL)	440 (≈ 107 µg/mL)	> 880	> 880	–	–	–	–	–	–	–	–	–	–	–	–	–	–
CCCCCCCCCCCCOCCOCCOCCO [L3, Triethylene Glycol Monododecyl Ether]	≤ 50	≤ 50	110 (≈ 35 µg/mL)	110 (≈ 35 µg/mL)	880 (≈ 280 µg/mL)	> 880	440 (≈ 140 µg/mL)	440 (≈ 140 µg/mL)	220 (≈ 70.1 µg/mL)	220 (≈ 70.1 µg/mL)	110 (≈ 35 µg/mL)	110 (≈ 35 µg/mL)	110 (≈ 35 µg/mL)	110 (≈ 35 µg/mL)	55 (≈ 17.5 µg/mL)	55 (≈ 17.5 µg/mL)	~110 (≈ 35 µg/mL)	–
CCCCCCCCCCCCOCCOCCO [L2, Diethylene Glycol Monododecyl Ether]	110 (≈ 30.2 µg/mL)	110 (≈ 30.2 µg/mL)	> 880	> 880	> 880	> 880	880 (≈ 242 µg/mL)	880 (≈ 242 µg/mL)	440 (≈ 121 µg/mL)	440 (≈ 121 µg/mL)	110 (≈ 30.2 µg/mL)	110 (≈ 30.2 µg/mL)	110 (≈ 30.2 µg/mL)	110 (≈ 30.2 µg/mL)	110 (≈ 30.2 µg/mL)	110 (≈ 30.2 µg/mL)	–	–
CCCCCCCCCCCCOCCOCCOCCOCCO [L4, Tetraethylene Glycol Monododecyl Ether]	≤ 50	≤ 50	220 (≈ 79.8 µg/mL)	220 (≈ 79.8 µg/mL)	220 (≈ 79.8 µg/mL)	440 (≈ 160 µg/mL)	110 (≈ 39.9 µg/mL)	110 (≈ 39.9 µg/mL)	440 (≈ 160 µg/mL)	440 (≈ 160 µg/mL)	55 (≈ 19.9 µg/mL)	55 (≈ 19.9 µg/mL)	110 (≈ 39.9 µg/mL)	110 (≈ 39.9 µg/mL)	55 (≈ 19.9 µg/mL)	55 (≈ 19.9 µg/mL)	~110 (≈ 39.9 µg/mL)	–
CCCCCCCCCCCCOCCOCCOCCOCCOCCO [L5, Pentaethylene Glycol Monododecyl Ether]	≤ 50	≤ 50	220 (≈ 89.5 µg/mL)	220 (≈ 89.5 µg/mL)	220 (≈ 89.5 µg/mL)	220 (≈ 89.5 µg/mL)	110 (≈ 44.7 µg/mL)	110 (≈ 44.7 µg/mL)	220 (≈ 89.5 µg/mL)	220 (≈ 89.5 µg/mL)	110 (≈ 44.7 µg/mL)	110 (≈ 44.7 µg/mL)	110 (≈ 44.7 µg/mL)	110 (≈ 44.7 µg/mL)	110 (≈ 44.7 µg/mL)	110 (≈ 44.7 µg/mL)	~110 (≈ 44.7 µg/mL)	–
CCCCCCCCCCCCOCCOCCOCCOCCOCCOCCOCCO [L7, Heptaethylene Glycol Monododecyl Ether]	–	–	> 880	> 880	> 880	> 880	110 (≈ 54.4 µg/mL)	110 (≈ 54.4 µg/mL)	> 880	> 880	> 440	> 440	> 440	> 440	> 440	> 440	–	MIC ([1]; 22 hrs, read-out: MIC): 110 µM (≈ 54.4 µg/mL); MIC ([1]; 48 hrs, read-out: MIC): 110 µM (≈ 54.4 µg/mL)
CCCCCCCCCCCCOCCOCCOCCOCCOCCOCCOCCOCCO [L8, Octaethylene Glycol Monododecyl Ether]	≤ 50	≤ 50	> 880	> 880	> 880	> 880	> 880	> 880	> 880	> 880	> 440	> 440	> 440	> 440	> 440	> 440	–	–
